In patent publication US6608055B2, “Crystalline anticholinergic, processes for preparing it and its use for preparing a pharmaceutical composition” (Boehringer Ingelheim Pharma KG, priority 2001, dated 2003):

Assay: storage of the anhydrous form at controlled relative humidity (preservation of anhydrous state)
Assay type: physicochemical
Conditions: coarse crystals, r.h. = relative humidity
Method: Alternatively to the drying step at elevated temperature under reduced pressure described above, the anhydrous form may also be prepared by storing the crystalline tiotropium bromide monohydrate over a drying agent, preferably over dried silica gel at ambient temperature for a period of 12 to 96 hours, preferably 18 to 72 hours, most preferably at least 24 hours. The anhydrous form thus obtained should be stored more or less dry, depending on the particle size, to preserve its anhydrous state. In the case of coarse crystals of anhydrous tiotropium bromide, which may be prepared for example as described above, storage at <75% r.h. (relative humidity) is sufficient to maintain the anhydrous state. In the micronised state, i.e. where the material has a much larger surface area, water may even be absorbed at lower humidity levels. In order to maintain the anhydrous form in the micronised state, it is therefore advisable to store the anhydrous form of tiotropium bromide over dried silica gel until it is further processed to form the desired inhalable powder containing suitable excipients (e.g. lactose) in addition to tiotropium bromide.

In the case of `C[N+]1(C)C2C[C@H](OC(=O)C(O)(c3cccs3)c3cccs3)CC1[C@H]1OC21` (stereo partly drawn) [anhydrous tiotropium bromide, (1α,2β,4β,5α,7β)-7-[(hydroxydi-2-thienylacetyl)oxy]-9,9-dimethyl-3-oxa-9-azoniatricyclo[3.3.1.0^2,4]nonane-bromide], the “relative humidity of storage sufficient to maintain the anhydrous state” value is reported as < 75 % r.h.
